System: gene expression in muscle
Assay: Quantitative real-time PCR gene expression in muscle of obese, insulin resistant Wistar rats
Assay type: in vivo
Method: Three week old male rats were fed a high fat diet for 24 weeks to induce obesity and insulin resistance. Thereafter, rats were treated with 0.3 mg/kg Rx-1 daily for two weeks, and then with 3 mg/kg Rx-1 daily for seven days. Fasting glucose concentrations were measured before treatment, after two weeks treatment with 0.3 mg/kg Rx-1 and then again after seven days treatment with 3 mg/kg Rx-1. After treatment with 3 mg/kg Rx-1 rats were terminated and liver, muscle and pancreas biopsies were taken. Quantitative real-time PCR was used to measure the expression of 12 genes in liver and muscle samples, and ten genes in pancreas samples.
Rats were housed at the Primate Unit (Medical Research Council, South Africa). Rat management including feeding, glucose measurements and terminations, were done according to standard operating procedures (Diabetes Discovery Platform, Medical Research Council). Briefly, three week old rats were fed a high fat diet for 24 weeks to induce T2D. The study group consisted of thirteen rats, eight rats were treated by daily gavage with 0.3 mg/kg Rx-1 for two weeks, and then with 3 mg/kg Rx-1 for seven days. Five rats were used as controls and were treated with water only for three weeks. Rats were terminated after treatment and liver, muscle and pancreas tissue harvested and stored in RNalater (Ambion) as recommended by the manufacturer. The study was approved by the ethics committee of the Medical Research Council of South Africa.
RNA extracted from liver, muscle and pancreas tissue was converted to cDNA using the High Capacity Reverse Transcription kit as recommended by the manufacturers (Applied Biosystems). In brief, 2 μg of DNase-treated RNA was added to nuclease-free water in a volume of 10 μl. Thereafter, 2 μl reaction buffer, 0.8 μl dNTPs, 2 μl random primers, 1 μl RNase-inhibitor, 1 μl reverse transcriptase, and 3.2 μl nuclease-free water were added. The same reaction without the reverse transcription enzyme (minus RT reaction) was set-up to investigate genomic DNA contamination. Reactions were incubated at 25° C. for 10 min, 37° C. for 120 min, and 85° C. for 5 s to inactivate the reverse transcriptase. cDNA samples were stored at −20° C. until expression analysis.
For analysis of gene expression, 25 ng of cDNA prepared from liver, muscle and pancreas was mixed with 12.5 μl Taqman universal PCR master mix (Applied Biosystems), 1.25 μl gene-specific primer and probe mixtures (predeveloped Taqman gene expression assays, Applied Biosystems), and H2O in a final volume of 25 μl. The suffix _m represents an assay whose probe spans an exon-exon junction of the associated gene and therefore will not detect genomic DNA, while the suffix _s represents an assay whose primers and probes are designed within a single exon, such assays will detect genomic DNA.
The PCR reactions were conducted on the ABI 7500 Sequence Detection System Instrument (Applied Biosystems) using universal cycling conditions as described before. All samples were run in duplicate. Data generated on the ABI 7500 Instrument were analysed with the ABI Relative Quantitation (RQ) software (SDS V1.4) using a Ct threshold of 0.1. Relative expression levels were determined by using the 2^−ΔΔCt method, where ΔΔCt=(Ctgene studied−Cthousekeeping gene)treated−(Ctgene studied−Cthousekeeping gene)control. The gene expression was normalised to housekeeping genes to correct for differences in cDNA loading. Two gene expression assays, β-actin (ActB) and glyceraldehyde-3-phosphate dehydrogenase (Gapdh) (Table 1) were used as endogenous controls. Relative gene expression data generated by the RQ software for each of the two endogenous controls individually or the data normalised to the average of the two endogenous controls were imported into Microsoft Excel and analysed. […]

For `O=C(O)/C(=C/c1ccccc1)O[C@@H]1O[C@H](CO)[C@@H](O)[C@H](O)[C@H]1O` [RX-1, 3-Phenyl-2-(3,4,5-trihydroxy-6-hydroxymethyl-tetrahydro-pyran-2-yloxy)-acrylic acid], the “Gck mRNA levels” value was “decreased”, the “Glut4 mRNA levels” value was “unaffected” and the IR gene expression was “did not affect”. For the same compound, the “IRS1 mRNA levels” value was “unchanged”, the “IRS2 mRNA levels” value was “unchanged” and the GcgR gene expression (not statistically significant) was “increased”. The “SOCS1 mRNA expression” value (not statistically significant) was “increased” and the “SOCS3 mRNA expression” value (not statistically significant) was “increased”.

Reference: patent publication US10174065B2, “Antidiabetic enolic glucoside of phenylpyruvic acid” (ZADEC APS, priority 2010, dated 2019)
